Test results as given in patent US20230398114A1, “METHODS OF TREATING CORONAVIRUS DISEASE AND COMPOUNDS FOR SAME” (priority 2020, published 2023).
Where “and” joins values, the source holds several entries; their conditions need not be identical. Identical values can stand only once. Like-named read-outs stand apart in the source and are kept apart here.

Key:
[1] = tested on: NR-53516 SARS-Related Coronavirus 2 Isolate New York—PV09158/2020; format: cell-based, SARS-CoV-2; settings: Vero-76 cells, after 4 days
[2] = tested on: Calu-3; settings: Calu-3 cells, any concentration tested up to 100 μM
[3] = target: Mast/stem cell growth factor receptor Kit (Homo sapiens, UniProt P10721); settings: cited from earlier work
[4] = oral Imatinib dose of 400 mg/day; cited from earlier work
[5] = tested on: USA-WA1/2020 (SARS-CoV-2) virus; format: in vivo, K18-hACE2 mice; settings: for Lung (log10 TCID50/mL), group AVG: day 6, 7 mice per group, Mebendazole 50 mg/kg po; for Lung (log10 TCID50/mL), group AVG / Lung (log10 TCID50/mL), individual animals: Imatinib 100 mg/kg, Niclosamide 200 mg/kg, alone or combined; for Lung (log10 TCID50/mL), individual animals: day 6, Mebendazole 50 mg/kg po once daily
[6] = tested on: USA-WA1/2020 (SARS-CoV-2) virus; format: in vivo, K18-hACE2 mice; settings: for Viral content by lung RT-qPCR, Log10, group AVG / Viral content by lung RT-qPCR, Mean Result, group AVG: day 6, 7 mice per group; for Viral content by lung RT-qPCR, Log10, group AVG / Viral content by lung RT-qPCR, Mean Result, group AVG / Viral content by lung RT-qPCR, Log10 (individual animals) / Viral content by lung RT-qPCR, Mean Result (individual animals): Imatinib 100 mg/kg, Niclosamide 200 mg/kg, alone or combined; for Viral content by lung RT-qPCR, Log10 (individual animals) / Viral content by lung RT-qPCR, Mean Result (individual animals): day 6, oral gavage once daily, Mebendazole 50 mg/kg
[7] = tested on: Vero 76 African green monkey kidney cells; settings: Vero 76 cells, any concentration tested up to 100 μM
[8] = tested on: SARS-CoV-2 (USA-WA1/2020 Isolate); test: microbe, parasite or virus in culture; format: cell-based; settings: Calu-3 cells
[9] = cited from earlier work
[10] = tested on: SARS-CoV-2; settings: human hepatoma cell line (Huh 7.5 cells) infected with SARS-CoV-2; cited from earlier work
[11] = tested on: human coronavirus NL63; settings: microtubule inhibitor, compared with actin inhibitors; cited from earlier work
[12] = day 6, Mebendazole 50 mg/kg po, alone or with Imatinib 100 mg/kg po

Chain of Mast/stem cell growth factor receptor Kit (P10721 26-976, species assumed): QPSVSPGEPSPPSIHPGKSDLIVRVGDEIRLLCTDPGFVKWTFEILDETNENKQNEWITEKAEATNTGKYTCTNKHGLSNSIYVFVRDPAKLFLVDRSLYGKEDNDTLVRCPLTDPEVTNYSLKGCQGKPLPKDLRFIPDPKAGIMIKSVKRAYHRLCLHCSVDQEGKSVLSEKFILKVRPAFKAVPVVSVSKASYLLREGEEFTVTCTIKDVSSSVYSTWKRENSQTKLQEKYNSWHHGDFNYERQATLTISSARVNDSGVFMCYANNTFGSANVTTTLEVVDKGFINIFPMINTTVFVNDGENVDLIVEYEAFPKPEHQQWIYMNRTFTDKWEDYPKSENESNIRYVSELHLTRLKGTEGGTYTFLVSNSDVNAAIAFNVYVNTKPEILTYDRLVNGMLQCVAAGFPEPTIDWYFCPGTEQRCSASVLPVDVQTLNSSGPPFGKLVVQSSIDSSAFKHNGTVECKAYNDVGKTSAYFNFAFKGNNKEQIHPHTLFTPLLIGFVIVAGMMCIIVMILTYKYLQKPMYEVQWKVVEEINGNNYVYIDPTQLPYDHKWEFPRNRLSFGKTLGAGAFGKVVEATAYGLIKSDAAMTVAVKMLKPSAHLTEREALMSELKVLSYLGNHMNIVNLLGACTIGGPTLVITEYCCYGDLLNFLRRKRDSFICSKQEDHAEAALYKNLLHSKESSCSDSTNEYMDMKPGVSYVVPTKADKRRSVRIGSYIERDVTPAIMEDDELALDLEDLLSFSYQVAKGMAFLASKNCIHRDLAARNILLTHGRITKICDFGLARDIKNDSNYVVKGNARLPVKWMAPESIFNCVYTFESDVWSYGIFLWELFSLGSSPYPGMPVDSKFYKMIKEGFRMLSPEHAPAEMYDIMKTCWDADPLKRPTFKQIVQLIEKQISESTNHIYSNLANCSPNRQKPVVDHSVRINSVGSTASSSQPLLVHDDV

With `CNC(=O)c1ccccc1Sc1ccc2c(/C=C/c3ccccn3)n[nH]c2c1` [Axitinib] the “reduction in viral load (Average Virus TCID50/ml*10^6)” value (shortened to “reduction in viral load”) ([1]; 500 nano molar) was 66.4%.
For `COc1cc(Nc2c(C#N)cnc3cc(OCCCN4CCN(C)CC4)c(OC)cc23)c(Cl)cc1Cl` [Bosutinib], the “reduction in viral load” value ([1]; 50 nano molar) was 47.3%.
For `COc1cc2ncnc(Nc3ccc(F)c(Cl)c3)c2cc1OCCCN1CCOCC1` [Gefitinib], the “reduction in viral load” value ([1]; 50 nano molar) was 53.54%.
For `Cc1ccc(NC(=O)c2ccc(CN3CCN(C)CC3)cc2)cc1Nc1nccc(-c2cccnc2)n1` [Imatinib], the “cytotoxicity (MTT)” value [2] is given as “no cytotoxicity was observed”, the “reduction in viral load” value ([1]; 10 micro molar) is given as 29.6% and the “known to target (value in brackets, measure not stated)” value [3] is given as 16 nM. The “expected trough plasma concentration” value [4] was 1.7 µM, the “animals positively affected (lung TCID50)” value ([5]; day 6, 7 animals per group) was “a single animal” and the “Lung (log10 TCID50/mL), group AVG” value [5] was 7.4 log10 TCID50/mL. For the same molecule, the “Lung (log10 TCID50/mL), individual animals” value [5] was 8.3 log10 TCID50/mL and 7.5 log10 TCID50/mL and 5.3 log10 TCID50/mL and 7.6 log10 TCID50/mL and 8.5 log10 TCID50/mL and 8.0 log10 TCID50/mL and 6.5 log10 TCID50/mL, the “Viral content by lung RT-qPCR, Log10, group AVG” value (shortened to “Viral content … Log10, group AVG”) ([6]; Mebendazole 50 mg/kg po) was 7.8 and the “Viral content by lung RT-qPCR, Mean Result, group AVG” value ([6]; Mebendazole 50 mg/kg po) was 9.54E+07. The “Viral content by lung RT-qPCR, Log10 (individual animals)” value [6] was 7.6 and 7.7 and 7.9 (2×) and 8.0 and 7.3 and 8.5, the “Viral content by lung RT-qPCR, Mean Result (individual animals)” value [6] was 3.67E+07 and 5.37E+07 and 7.80E+07 and 9.13E+07 and 2.15E+07 and 7.53E+07 and 3.12E+08 and the “cytotoxicity (MTT)” value [7] was “no cytotoxicity was observed”.
In the case of `COC(=O)Nc1nc2ccc(C(=O)c3ccccc3)cc2[nH]1` [Mebendazole], the “inhibition of SARS-CoV-2 (in words)” value ([8]; 2.3-5000 nM) is listed as “Complete or near complete inhibition”, the EC50 ([8]; Severe acute respiratory syndrome coronavirus 2, 24 h pretreatment, read 48 h after inoculation, MOI 0.005, read-out: EC50, inhibition of SARS-CoV-2) is listed as 102 nM and the “share of a single oral dose that reaches systemic circulation” value ([9]; humans, extensive first-pass metabolism) is listed as “less than 10%”. For the same molecule, the elimination half-life ([9]; in vivo) was 3 to 6 h, the “higher exposure at steady-state” value ([9]; long-term oral administration) was about 3 fold and the “share of an oral dose excreted in urine” value ([9]; oral dose) was under 2%. For the same molecule, the “antiviral activity compared to the Vero E6 cells” value [10] was “appeared to be lower”, the “Lung (log10 TCID50/mL), group AVG” value [5] was 5.8 log10 TCID50/mL and the “Lung (log10 TCID50/mL), individual animals” value [5] was 6.0 log10 TCID50/mL and 5.3 log10 TCID50/mL (2×) and 4.8 log10 TCID50/mL and 5.5 log10 TCID50/mL and 7.3 log10 TCID50/mL and 6.5 log10 TCID50/mL. For the same molecule, the “Viral content … Log10, group AVG” value ([6]; Mebendazole 50 mg/kg po) was 7.8, the “Viral content by lung RT-qPCR, Mean Result, group AVG” value ([6]; Mebendazole 50 mg/kg po) was 4.36E+07 and the “Viral content by lung RT-qPCR, Log10 (individual animals)” value [6] was 7.9 (2×) and 7.7 and 7.3 (2×) and 7.6 and 7.5. For the same molecule, the “Viral content by lung RT-qPCR, Mean Result (individual animals)” value [6] was 7.15E+07 and 4.97E+07 and 7.76E+07 and 1.90E+07 and 2.03E+07 and 3.73E+07 and 2.95E+07, the “Mean % Reduction of Lung Tissue RT-qPCR Titers vs. the Group Mean of Placebo Treated Mice” value [6, 12] was 44.2% and the “Percent Reduction of Lung Tissue RT-qPCR Titers (Individual Animals) vs. the Group Mean of Placebo Treated Mice” value [6, 12] was 8.45% and 36.36% and 0.64% and 75.67% and 74.01% and 52.24% and 62.23%.
For `O=C(Nc1ccc([N+](=O)[O-])cc1Cl)c1cc(Cl)ccc1O` [Niclosamide], the “Lung (log10 TCID50/mL), group AVG” value [5] was 6.1 log10 TCID50/mL, the “Lung (log10 TCID50/mL), individual animals” value [5] was 6.3 log10 TCID50/mL and 5.5 log10 TCID50/mL (3×) and 8.5 log10 TCID50/mL and 6.8 log10 TCID50/mL and 4.3 log10 TCID50/mL and the “Viral content … Log10, group AVG” value ([6]; Mebendazole 50 mg/kg po) was 7.7. For the same molecule, the “Viral content by lung RT-qPCR, Mean Result, group AVG” value ([6]; Mebendazole 50 mg/kg po) was 8.46E+07, the “Viral content by lung RT-qPCR, Log10 (individual animals)” value [6] was 7.6 and 6.7 and 7.5 (2×) and 8.0 and 8.5 and 7.9 and the “Viral content by lung RT-qPCR, Mean Result (individual animals)” value [6] was 4.28E+07 and 5.54E+06 and 3.04E+07 and 9.85E+07 and 3.08E+08 and 7.72E+07 and 2.97E+07.
For `COC(=O)Nc1nc2ccc(C(=O)c3cccs3)cc2[nH]1` [nocodazole], the “reduction of virus entry” value [11] is listed as “did not”.
